Measured values: patent US20110070314A1 (priority 2009, published 2011)

Columns and labels:
[1] = system: U-87MG orthotopic glioblastoma; conditions: mouse, in vivo
[2] = system: U-87MG orthotopic glioblastoma; conditions: mouse, in vivo; remark: listed apart in the source
U373 cells = assay type: cell-based, human
T98G cells = assay type: cell-based, human
U138 cells = assay type: cell-based, human
[3] = mouse, in vivo
[4] = mouse, in vivo; remark: listed apart in the source
U-87MG cells = assay type: cell-based, human
brain tumors = conditions: human, in vivo

## sodium meta arsenite
[1]
  Serum ALT and AST difference between the groups: no significant difference
[1]; po, 10 mg/kg
  Anticancer effect: no anticancer effect
[2]
  Body weight difference between groups: no significant difference
[2]; po, 1.25 mg/kg
  Inhibition of tumor growth: 28%
  Tumor mass: 40.2±12.3 mm^3
[2]; po, 5 mg/kg
  MRI imaging of tumor mass: decrease of tumor mass
U373 cells
  Anticancer effect (cell viability) vs control: significant anticancer effects
  Dose dependence of anticancer effect: dose-dependent anticancer effects
T98G cells
  Anticancer effect (cell viability) vs control: significant anticancer effects
  Dose dependence of anticancer effect: dose-dependent anticancer effects
U138 cells
  Anticancer effect (cell viability) vs control: significant anticancer effects
  Dose dependence of anticancer effect: dose-dependent anticancer effects
[3]
  Crossing of the blood brain barrier: can readily cross the blood brain barrier
[4]
  Adverse effects following oral and IV administration: No adverse effects were observed
  Clinical signs during testing: No clinical signs were observed
U-87MG cells
  Anticancer effect (cell viability) vs control: significant anticancer effects
  Dose dependence of anticancer effect: dose-dependent anticancer effects
Brain tumors
  MRI finding on brain tumor: brain tumor was completely gone.
  Side effects: Pt # 1 did not find any particular
  Time until pain lessened: side effects, and within 5 days them
Brain tumors; iv
  Effect on lung cancer: conditions appear to be stable.
  Effect on tumor in the brain: the tumor in the brain disappeared
